Each structure is given as a SMILES string. Values after ≈ are worked out from the molar mass of the structure shown. Structures can show the parent of a compound that is named as a salt.

Data on 22 compounds can be found in US20070299043A1, “Anti-scarring drug combinations and use thereof” (priority 2005, published 2007).

One data set deals with E. coli UB1005 C498. The data set can be described thus: MIC by microtitre broth dilution. The format is cell-based. Particulars: for Minimum inhibitory concentration: Gram−, wt, Mueller Hinton broth, 37° C, 24h. The procedure:
(§1) MIC assays were conducted essentially as described by Amsterdam, D. 1996, “Susceptibility testing of antimicrobials in liquid media”, p. 52-111, in Loman, V., ed. Antibiotics in laboratory medicine, 4th ed. Williams and Wilkins, Baltimore, Md.

The conditions of data set [1]: cited from earlier work; for solubility in alcohol/ethanol: alcohol or ethanol.
The test system of data set [2] is K. pneumoniae ATCC13883 C238. The data set can be described thus: MIC by microtitre broth dilution. Conditions: Gram−, wt; Mueller Hinton broth, 37° C, 24h. In kind it is cell-based. The procedure: as §1
On the technique in general: Dilution methods test growth across graded concentrations, often in twofold steps.

In the next data set the test system is S. pyogenes C721. The data set can be described thus: MIC by microtitre broth dilution. Particulars: Gram+, wt; Todd Hewitt broth, 37° C, 24h. The format is cell-based. The procedure:
as §1

Another data set relates to S. aureus ATCC25923 C622. The data set can be described thus: MIC by microtitre broth dilution. In kind it is cell-based. Particulars: Gram+, wt; Mueller Hinton broth, 37° C, 24h. How it is done:
as §1

The subject of the next data set is S. epidermidis C621. The data set can be described thus: MIC by microtitre broth dilution. In kind it is cell-based. Conditions: Gram+, wt; Mueller Hinton broth, 37° C, 24h. The procedure: as §1
In data set [3] the test system is P. aeruginosa PAE/K799 H187. The data set can be described thus: MIC by microtitre broth dilution. The format is cell-based. Particulars: Gram−, wt; Mueller Hinton broth, 37° C, 24h. The procedure: as §1
Data set [4] has as its system multiple species of bacteria and fungi. Particulars: surface drug concentration is to be in excess of this value; cited from earlier work.
The test system of another data set is NFkB and AP1. The data set can be described thus: NFkB and AP1 activation. The format is cell-based.
A further data set concerns p38, JNK, ERK. The data set can be described thus: p38, JNK and ERK activation. In kind it is cell-based.
The next data set has as its target T1, glucocorticoid receptor (Homo sapiens, UniProt P04150).
T1 construct: endogenous in cells; host or cells: T cells
T1 sequence (P04150 1-777): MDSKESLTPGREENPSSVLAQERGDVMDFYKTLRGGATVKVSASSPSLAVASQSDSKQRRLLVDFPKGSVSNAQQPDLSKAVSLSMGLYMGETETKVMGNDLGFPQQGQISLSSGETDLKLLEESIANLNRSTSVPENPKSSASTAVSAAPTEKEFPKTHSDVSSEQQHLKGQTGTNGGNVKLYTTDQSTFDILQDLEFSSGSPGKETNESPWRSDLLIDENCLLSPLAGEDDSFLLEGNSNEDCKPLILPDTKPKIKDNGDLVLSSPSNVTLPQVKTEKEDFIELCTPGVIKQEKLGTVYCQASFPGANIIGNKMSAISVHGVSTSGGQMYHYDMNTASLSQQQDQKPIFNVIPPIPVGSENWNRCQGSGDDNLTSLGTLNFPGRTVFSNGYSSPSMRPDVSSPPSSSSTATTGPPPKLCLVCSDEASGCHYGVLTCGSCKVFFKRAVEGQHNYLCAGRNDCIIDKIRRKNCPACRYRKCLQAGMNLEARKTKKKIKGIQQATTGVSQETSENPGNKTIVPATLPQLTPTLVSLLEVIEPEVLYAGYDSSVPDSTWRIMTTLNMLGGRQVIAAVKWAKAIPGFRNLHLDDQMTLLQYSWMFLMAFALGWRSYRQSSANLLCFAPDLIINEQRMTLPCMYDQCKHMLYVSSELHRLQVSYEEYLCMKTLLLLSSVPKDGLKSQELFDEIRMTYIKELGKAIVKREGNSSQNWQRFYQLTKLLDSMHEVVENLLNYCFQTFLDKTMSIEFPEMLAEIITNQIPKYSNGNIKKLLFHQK
The data set can be described thus: Glucocorticoid receptor trafficking and GRE reporter plasmid transactivation in T cells. The format is cell-based. Conditions: for potentiation of prednisolone's ability to transactivate a GRE reporter plasmid: T cells.

The next data set concerns NFAT. The data set can be described thus: NFAT activation, translocation and transactivation. In kind it is cell-based.
Data set [5] relates to mast cells and eosinophil activation.
The test system of another data set is joint swelling. The data set can be described thus: Chronic in vivo arthritis model (adjuvant model), joint swelling. Conditions: component alone (prednisolone at reduced dose).
Data set [6] has as its system carrageenan-induced paw edema. The data set can be described thus: Rat carrageenan-induced paw edema model, paw volume. The format is in vivo. Conditions: Amoxapine 2.26 mg/kg, foot pad, T-1 hr; Tmax = 6 hrs; listed as amoxapine (Amox). The procedure:
A dose-range finding study was performed to determine the anti-inflammatory activity of various ratios of methyl prednisolone acetate and amoxapine in a rat carrageenan-induced paw edema model. […] The molar ratio of methyl prednisolone acetate to amoxapine ranged from 1:1 to 1:300, using total doses of methyl prednisolone acetate of 0.01, 0.03 or 0.1 mg/kg.
The test agent (a combination of methyl prednisolone acetate and amoxapine), vehicle control, or reference agents (methyl prednisolone acetate, amoxapine, or Depo-Medrol®) were administered in the left hind foot pad of rats. After 60 minutes, paw edema was induced by injection of 100 μl of 1% carrageenan in the same foot pad. The paw volume was measured with a water displacement plethysmometer immediately prior to test agent injection (T−1h), at the time of carrageenan injection (T0h), and at T6h. Animals were euthanized by carbon dioxide inhalation. Paw tissue samples were collected and flash frozen in liquid nitrogen. Samples were assayed for TNF-α by enzyme-linked immunoassay (ELISA).
For orientation: The carrageenan paw model is a standard test of acute inflammation.

In data set [7] the test system is LPS-induced TNF-α production. The data set can be described thus: Acute in vivo model of inflammation (LPS-induced TNF-α release). Particulars: component alone (prednisolone at reduced dose).
For data set [8] the following is noted: 200 mg/day orally; cited from earlier work.
A short description of data set [9]: Increase of the potency of an immunosuppressive agent.

Regarding `COc1cc([C@@H]2c3cc4c(cc3[C@@H](O[C@@H]3O[C@@H]5CO[C@@H](C)O[C@H]5[C@H](O)[C@H]3O)[C@H]3COC(=O)[C@H]23)OCO4)cc(OC)c1O` [etoposide], the Minimum inhibitory concentration result in the data set with E. coli UB1005 C498 was “N”.

In the case of `NC(=O)c1ncn([C@@H]2O[C@H](CO)[C@@H](O)[C@H]2O)n1` [Ribavirin, ribavirin], in [1], the “solubility in alcohol/ethanol” value is on record as “only slightly soluble in alcohol”.

As to `NC(=O)NO` [hydroxyurea], the Minimum inhibitory concentration entry is “N” in [2]; 10^−4 Molar with S. pyogenes C721; “N” in the data set with E. coli UB1005 C498; “N” with S. aureus ATCC25923 C622; “N” with S. epidermidis C621; 10^−4 Molar in data set [3].

Turning to `COc1cccc2c1C(=O)c1c(O)c3c(c(O)c1C2=O)C[C@@](O)(C(=O)CO)C[C@@H]3O[C@H]1C[C@H](N)[C@H](O)[C@H](C)O1` [doxorubicin, Doxorubicin], the Minimum inhibitory concentration in data set [2] was 10^−6 Molar; with S. pyogenes C721, 10^−7 Molar; in the data set on E. coli UB1005 C498, 10^−4 Molar; in the data set with S. aureus ATCC25923 C622, 10^−5 Molar; in the data set with S. epidermidis C621, 10^−6 Molar; in [3] it was 10^−5 Molar. Besides, the “concentration known to be lethal to multiple species of bacteria and fungi” value (“concentration known to be lethal” for short) in data set [4] was > 10^−4 M.

For the compound `Fc1ccc(C2CCNCC2COc2ccc3c(c2)OCO3)cc1` (single isomer, unassigned; (-)) [paroxetine, (−)-trans-4 R-(4′-fluorophenyl)-3 S-[(3′,4′-methylenedioxyphenoxy)methyl]piperidine hydrochloride hemihydrate], the “NFkB and AP1 activation” value with NFkB and AP1 is “inhibits”. Further, in the data set on p38, JNK, ERK, the ERK activation result is listed as “but not ERK activation”; the “p38 and JNK activation” value is reported as “inhibition”. Further, on glucocorticoid receptor, the “promotion of glucocorticoid receptor trafficking” value was “does not promote” and the “potentiation of prednisolone's ability to transactivate a GRE reporter plasmid” value is “does not promote glucocorticoid receptor trafficking or potentiate”. For the same compound, in the data set with NFAT, the “NFAT activation, translocation and transactivation” value is recorded as “represses”.

Consider `N.N.[Cl][Pt][Cl]` [cisplatin], for which the Minimum inhibitory concentration entry is on record as “N” in data set [2]; “N” with S. pyogenes C721; “N” with E. coli UB1005 C498; “N” in the data set with S. aureus ATCC25923 C622; “N” with S. epidermidis C621; 10^−4 Molar in data set [3].

Consider `Nc1ccc(/N=N/c2ccccc2)c(N)n1` [Phenazopyridine base, phenazopyridine], for which, in data set [1], the “solubility in alcohol/ethanol” value is “slightly soluble in water and alcohol”; the “solubility in water” value is “slightly soluble in water and alcohol”.

In the case of `CC[C@@]1(O)C(=O)OCc2c1cc1n(c2=O)Cc2cc3ccccc3nc2-1` [camptothecin], the Minimum inhibitory concentration result (in [2]; with S. pyogenes C721; in the data set on E. coli UB1005 C498; with S. aureus ATCC25923 C622; in data set [3]) was “N” throughout.

Turning to `Sc1ncnc2nc[nH]c12` [6-mercaptopurine], the Minimum inhibitory concentration entry with E. coli UB1005 C498 was “N”.

On to `CN(Cc1cnc2nc(N)nc(N)c2n1)c1ccc(C(=O)N[C@@H](CCC(=O)O)C(=O)O)cc1` [methotrexate], for which the Minimum inhibitory concentration is given as 10^−6 Molar in data set [2]; 10^−6 Molar with S. pyogenes C721; “N” with E. coli UB1005 C498; 10^−5 Molar with S. aureus ATCC25923 C622; “N” in the data set with S. epidermidis C621; “N” in data set [3].

Regarding `CCOC(=O)N1CCC(=C2c3ccc(Cl)cc3CCc3cccnc32)CC1` [loratadine], the “mast cells and eosinophil activation” value in data set [5] is “inhibits”.

On to `Clc1ccc2c(c1)C(N1CCNCC1)=Nc1ccccc1O2` [amoxapine], for which, in the data set on NFkB and AP1, the “NFkB and AP1 activation” value was “partially inhibits”. In addition, in the data set with p38, JNK, ERK, the ERK activation result was “unaffected”; the “p38 and JNK activation” value is reported as “Inhibition”. The “effect of the individual component alone” value in the data set with joint swelling is on record as “modest or no benefit”. Moreover, the “Edema ± SEM” value in [6] is recorded as “not significantly different from the vehicle treatment”. Besides, in data set [7], the “effect of the individual component alone” value is on record as “modest or no benefit”. In addition, on glucocorticoid receptor, the “promotion of glucocorticoid receptor trafficking” value is reported as “does not promote” and the “potentiation of prednisolone's ability to transactivate a GRE reporter plasmid” value was “does not potentiate”. In addition, in the data set with NFAT, the “NFAT activation, translocation and transactivation” value is recorded as “block”.

For the compound `Sc1ncc2[nH]cnc2n1` [2-mercaptopurine], the Minimum inhibitory concentration entry in the data set on E. coli UB1005 C498 is reported as “N”.

Consider `CC(=O)N1CCN(c2ccc(OCC3COC(Cn4ccnc4)(c4ccc(Cl)cc4Cl)O3)cc2)CC1` (stereo not drawn) [ketoconazole], for which the serum concentration result in data set [8] is listed as “about 3.2 micrograms”. In addition, the “solubility in water” value in data set [1] is given as “essentially insoluble in water”.

As for `CN(C)C(=O)C(CCN1CCC(O)(c2ccc(Cl)cc2)CC1)(c1ccccc1)c1ccccc1` [Loperamide], the “potency of an immunosuppressive agent” value in data set [9] is “increase the potency”.

As to `Nc1ncnc2c1ccn2[C@@H]1O[C@H](CO)[C@@H](O)[C@H]1O` [tubercidin], the Minimum inhibitory concentration result (in [2]; with S. pyogenes C721; with E. coli UB1005 C498; in the data set with S. aureus ATCC25923 C622; in the data set with S. epidermidis C621; in data set [3]) was “N” each time.

With `Oc1cc(Cl)ccc1Oc1ccc(Cl)cc1Cl` [triclosan], the “potency of an immunosuppressive agent” value in [9] is “increases the potency”.

In the case of `Nc1ccn([C@@H]2O[C@H](CO)[C@@H](O)[C@@H]2O)c(=O)n1` [Cytarabine, cytarabine], the Minimum inhibitory concentration entry in the data set with E. coli UB1005 C498 is recorded as “N”.

Regarding `O=c1[nH]cc(F)c(=O)[nH]1` [5-fluorouracil, 5-Fluorouracil], the MIC with E. coli UB1005 C498 (Escherichia coli, UB1005C498, 24 h, read-out: Minimum inhibitory concentration) worked out at 1 µM (≈ 0.13 µg/mL). For the same compound, in data set [4], the “concentration known to be lethal” value is listed as > 10^−4 M.

For the compound `O=C1c2c(O)ccc(O)c2C(=O)c2c(NCCNCCO)ccc(NCCNCCO)c21` [mitoxantrone], the Minimum inhibitory concentration in the data set on E. coli UB1005 C498 was 10^−5 Molar. In addition, the “concentration known to be lethal” value in data set [4] was > 10^−5 M.

Consider `CNCCCC12CCC(c3ccccc31)c1ccccc12` [maprotiline], for which the “potency of an immunosuppressive agent” value in data set [9] is on record as “increases the potency”.

On to `CCN(CC)C(C)CN1c2ccccc2Sc2ccccc21` (stereo not drawn) [Ethopropazine, ethopropazine], for which, in data set [9], the “potency of an immunosuppressive agent” value is listed as “increases the potency”.
